The source of these data is patent publication US20090036474A1, “Quinazoline derivatives for use against cancer” (priority 2004, published 2009).

The target in the assay is T1, phospho-Tyr751 PDGFRβ (Homo sapiens, UniProt P09619).
T1 construct: phosphorylation of PDGFR expressed on MG63 osteosarcoma cells; endogenous in cells; host or cells: MG63 osteosarcoma cells
The assay can be described thus: In vitro phospho-Tyr751 PDGFRβ ELISA assay in MG63 osteosarcoma cells, Test (b). Type of assay: cell-based. To be noted: MG63 cells stimulated with PDGFBB, read-out: IC50 versus phospho-Tyr751 PDGFRβ. As for the experimental part:
This assay uses a conventional ELISA method to determine the ability of test compounds to inhibit phosphorylation of tyrosine in PDGFRβ.
An MG63 osteosarcoma cell line [American Type Culture Collection (ATCC) CCL 1427] was routinely maintained at 37° C. with 7.5% CO2 in Dulbecco's modified Eagle's growth medium (DMEM; Sigma-Aldrich; Catalogue No. D6546) containing 10% foetal calf serum (FCS; Sigma-Aldrich; Catalogue No. F7524) and 2 mM L-glutamine (Invitrogen Ltd., Paisley, UK; Catalogue No. 25030-024).
For the assay, the cells were detached from the culture flask using a trypsin/ethylenediaminetetraacetic acid (EDTA) mixture (Invitrogen Ltd.; Catalogue No. 15400-054) and resuspended in test media comprising DMEM without phenol red (Sigma-1-Aldrich; Catalogue No. D5921) containing 1% charcoal-stripped-foetal calf serum (FCS) (Sigma-Aldrich; Catalogue No. F7524, stripped by incubation with dextran-coated activated charcoal at 55° C. for 30 minutes with continuous stirring followed by removal of the charcoal by centrifugation and filter sterilisation) and 2 mM L-glutamine (Invitrogen Ltd., Catalogue No. 25030-024) to give 6×10^4 cells per ml. […]
In general terms: An ELISA detects its analyte on a solid surface through an enzyme-linked reagent.

T1 sequence (P09619 33-1106): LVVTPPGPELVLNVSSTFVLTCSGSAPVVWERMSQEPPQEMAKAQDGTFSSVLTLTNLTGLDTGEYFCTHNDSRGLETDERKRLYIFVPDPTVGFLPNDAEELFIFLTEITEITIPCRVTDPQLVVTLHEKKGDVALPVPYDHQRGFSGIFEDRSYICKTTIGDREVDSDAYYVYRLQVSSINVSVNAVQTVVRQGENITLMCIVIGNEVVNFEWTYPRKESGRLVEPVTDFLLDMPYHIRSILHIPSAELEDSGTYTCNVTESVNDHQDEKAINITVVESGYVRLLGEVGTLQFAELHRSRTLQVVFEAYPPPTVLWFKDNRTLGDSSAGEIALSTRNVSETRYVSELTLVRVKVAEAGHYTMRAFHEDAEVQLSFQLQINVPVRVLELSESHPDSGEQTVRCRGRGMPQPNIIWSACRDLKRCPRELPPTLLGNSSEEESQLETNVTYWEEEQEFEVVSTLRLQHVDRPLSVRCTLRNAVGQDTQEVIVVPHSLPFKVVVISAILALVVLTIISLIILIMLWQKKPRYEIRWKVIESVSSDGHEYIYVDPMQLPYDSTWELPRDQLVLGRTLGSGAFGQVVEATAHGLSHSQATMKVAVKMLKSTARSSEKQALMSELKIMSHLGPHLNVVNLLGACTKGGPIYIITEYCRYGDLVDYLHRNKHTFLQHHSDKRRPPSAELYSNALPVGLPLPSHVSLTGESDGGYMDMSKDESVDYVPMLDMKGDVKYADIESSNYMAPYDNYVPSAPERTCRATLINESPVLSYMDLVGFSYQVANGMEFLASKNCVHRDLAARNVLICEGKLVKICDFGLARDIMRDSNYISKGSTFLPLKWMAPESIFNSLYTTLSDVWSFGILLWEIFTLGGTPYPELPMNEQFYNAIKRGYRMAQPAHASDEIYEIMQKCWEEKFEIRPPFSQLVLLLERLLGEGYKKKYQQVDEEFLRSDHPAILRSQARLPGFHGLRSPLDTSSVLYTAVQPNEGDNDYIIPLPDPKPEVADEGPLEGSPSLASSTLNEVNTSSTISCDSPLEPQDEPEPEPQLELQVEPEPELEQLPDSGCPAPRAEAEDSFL

Take `COc1cc2ncnc(Oc3cnn(CC(=O)Nc4cccc5c4OCO5)c3)c2cc1OC` [Example 2, N-(2,3-methylenedioxyphenyl)-2-[4-(6,7-dimethoxyquinazolin-4-yloxy)pyrazol-1-yl]acetamide]: the IC50 (commonly the concentration that inhibits the measured activity by half) was ~3 nM.
